In general, IC50 refers to the concentration that gives 50% inhibition. The term Km denotes the concentration of substrate that gives half-maximal velocity.

Like-named read-outs stand apart in the source and are kept apart here.

We go through five compounds from publication PMC7076352 (Pharmaceutics, 2020).

Data set [1] concerns CYP2C19. Kind of data set: in vitro. The note with it: rat. In outline: (§1)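 Probe substrates were pooled in a single microsomal incubation, with each substrate concentration optimized to keep metabolite formation linear. Metabolites were quantified against isotope-labelled internal standards: hydroxybupropion-[D6] (OHBUP-[D6]) and 5 nM 4′-hydroxydiclofenac-[^13C6] (OHDIC-[^13C6]).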

In data set [2] the test system is CYP2B6. Kind of data set: in vitro. The note with it: microsomes. The method in brief: as §1
In data set [3] the test system is CYP2C9. Kind of data set: in vitro. The note with it: Sprague-Dawley, rat, microsomes, pH 7.4. In outline:
as §1

In data set [4] the test system is CYP2D6. Kind of data set: in vitro. The note with it: rat, pH 7.4. In outline:
as §1

The subject of the next data set is CYP3A4. Kind of data set: in vitro. The note with it: Sprague-Dawley, rat, microsomes, pH 7.4. In outline:
as §1

Data set [5] has as its system CYP450s (isozyme not named). Kind of data set: In vitro cocktail CYP450 activity assay, isozyme not given. Format: in vitro ADME, SD rat. The note with it: Sprague-Dawley, rat, pH 7.4. How it is done: (OHBUP-[D6]) and 5 nM 4′-hydroxydiclofenac-[^13C6] (OHDIC-[^13C6]) as internal standards (ISs).
In another data set the target is CYP2E1 (Rattus norvegicus, UniProt P05182). The note with it: IC50 CYP2E1, single components; RLM 0.2 mg/mL, 15 min, triplicate, mean ± SD.
Sequence of CYP2E1 (P05182 whole entry): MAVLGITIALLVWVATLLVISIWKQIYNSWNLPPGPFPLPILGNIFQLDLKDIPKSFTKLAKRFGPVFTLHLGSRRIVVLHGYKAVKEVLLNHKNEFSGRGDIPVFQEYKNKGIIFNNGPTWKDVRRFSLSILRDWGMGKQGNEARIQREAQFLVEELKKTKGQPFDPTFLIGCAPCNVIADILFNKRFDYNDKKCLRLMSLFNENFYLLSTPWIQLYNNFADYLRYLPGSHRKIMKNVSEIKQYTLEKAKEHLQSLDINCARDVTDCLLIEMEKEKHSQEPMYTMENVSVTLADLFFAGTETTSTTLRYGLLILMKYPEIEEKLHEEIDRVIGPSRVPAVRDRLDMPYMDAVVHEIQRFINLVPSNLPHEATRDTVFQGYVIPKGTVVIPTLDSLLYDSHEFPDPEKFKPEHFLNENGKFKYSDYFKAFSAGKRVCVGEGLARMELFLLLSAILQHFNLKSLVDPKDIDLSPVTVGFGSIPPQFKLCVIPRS
The subject of data set [6] is CYP2D6. The note with it: read-out: Reported Km; probe substrate DEX, CYP2D6, literature range ref 9; cited from earlier work.
Data set [7] has as its system CYP2C19. The note with it: read-out: Reported Km; probe substrate OME, CYP2C19, literature range ref 9; cited from earlier work.
In data set [8] the test system is CYP2C9. The note with it: read-out: Reported IC50; positive inhibitor of CYP2C9, literature ref 17,18; cited from earlier work.
In data set [9] the test system is CYP2B6. The note with it: positive inhibitor of CYP2B6, literature ref 12,13; read-out: Reported IC50; cited from earlier work.

Regarding `O=c1c(O)c(-c2ccc(O)c(O)c2)oc2cc(O)cc(O)c12` [A16, quercetin], the IC50 in the data set on CYP2C19 [1] (Sprague-Dawley, microsomes, pH 7.4) was 46.4 ± 7.05 µM; in the data set with CYP2B6 [2] (Sprague-Dawley, rat, pH 7.4), 68.5 ± 9.88 µM; in the data set on CYP2C9 [3] it was 13.5 ± 2.41 µM; in the data set with CYP2D6 [4] (Sprague-Dawley, microsomes) it was 31.1 ± 3.91 µM; in the data set with CYP3A4 it was […]; in [5], not above 15 µM. The IC50 on CYP2E1 was 20.3 ± 4.13 µM.
On to `COc1ccc2c(c1)[C@]13CCCC[C@@H]1[C@H](C2)N(C)CC3` [DEX, dextromethorphan, reference compound], for which the results for the Michaelis-Menten constant (Km) in the data set on CYP2D6 [4] (SD) and in the data set on CYP2D6 [6] were 0.62 ± 0.08 µM and 0.44 to 8.5 µM, respectively.
For the compound `COc1ccc2[nH]c([S+]([O-])Cc3ncc(C)c(OC)c3C)nc2c1` (stereo not drawn) [OME, omeprazole, reference compound], the Km at 15 min in the data set with CYP2C19 [1] (SD, pooled rat liver microsomes, pH 7.4, probe omeprazole) was found to be 7.8 ± 1.65 µM. Further, the Michaelis constant (Km) with CYP2C19 [7] was 17 to 26 µM.
With `Nc1ccc(S(=O)(=O)Nc2ccnn2-c2ccccc2)cc1` [SUL, sulfaphenazole, reference compound], the figures for the IC50 in the data set on CYP2C9 [3] and in the data set on CYP2C9 [8] were […] and […], respectively.
In the case of `S=P(N1CC1)(N1CC1)N1CC1` [TRI, triethylenethiophosphoramide, reference compound], the IC50 was 0.75 ± 0.0262 µM with CYP2B6 [2] and 1.75 to 26 µM with CYP2B6 [9].
